{"source": "patent US20220339187A1", "about": "“ANTIMICROBIAL PEPTIDE-SELENIUM NANOPARTICLES” (The University of Melbourne, priority 2019, published 2022)", "assay_in_all_cases": "CFU measuring assay / MBC calculation", "format_in_all_cases": "cell-based", "conditions_in_all_cases": "90 min at 37° C., linear regression, mean ± s.d.", "key": {"[1]": {"system": "methicillin-resistant Staphylococcus aureus (MRSA) ATCC 43300", "experimental": "(§1) For the CFU measuring assay, 50 μL of different concentrations of Se NPs, Se NP-ε-PL or pure ε-PL in PBS solution was added into each well of 96-well microplates, then 50 μL MHB with 2.5×10^6 cells/mL bacteria were added into each well. After incubating the microplate at 37° C. for 90 min, the bacterial solutions were diluted 10^−1, 10^−2, 10^−3 and 10^−4 times, then 10 μL of each dilution was transferred onto agar plates with MHB. The agar plates were incubated overnight, before the bacterial colony forming units were observed and measured.\n(§2) Concentration-killing curves were plotted with CFUs/mL as a function of antibacterial agent concentration, and linear regression analysis was used to determine the lowest concentration (MBC) at which the CFU/mL becomes zero."}, "[2]": {"system": "methicillin-sensitive Staphylococcus aureus (S. aureus) ATCC 29213", "experimental": "as §1, §2"}, "[3]": {"system": "Acinetobacter baumannii (A. baumannii) 2208 ATCC19606", "experimental": "as §1, §2"}, "[4]": {"system": "Enterococcus faecalis (E. faecalis) ATCC 29212", "experimental": "as §1, §2"}, "[5]": {"system": "Pseudomonas aeruginosa (P. aeruginosa) strain PAO1-LAC ATCC 47085", "experimental": "as §1, §2"}, "[6]": {"system": "Klebsiella pneumoniae (K. pneumoniae) ATCC 13883", "experimental": "as §1, §2"}}}
{"substance": "ε-poly-L-lysine [ε-PL]", "values": [{"measurement": "MBC", "setting": "[1]", "result": "149 ± 37", "unit": "µg/mL"}, {"measurement": "MBC", "setting": "[2]", "result": "50.6 ± 3.5", "unit": "µg/mL"}, {"measurement": "MBC", "setting": "[3]", "result": "50.0 ± 0.2", "unit": "µg/mL"}, {"measurement": "MBC", "setting": "[4]", "result": "134 ± 10", "unit": "µg/mL"}, {"measurement": "MBC", "setting": "[5]", "result": "25.0 ± 0.1", "unit": "µg/mL"}, {"measurement": "MBC", "setting": "[6]", "result": "12.9 ± 0.4", "unit": "µg/mL"}]}
